# ChEMBL document CHEMBL2375311, “Cytotoxic 3,4,5-trimethoxychalcones as mitotic arresters and cell migration inhibitors” (Eur J Med Chem, 2013)
# Active and inactive are the calls of the source. No cut-off for these calls is given here.
# Key:
# HeLa [1] = experiment: Antimitotic activity in human HeLa cells assessed as cell density loss after 24 hrs by Hoechst 33342 staining; assay type: functional, cell-based
# REH = experiment: Cytotoxicity against human REH cells after 48 hrs by MTT assay; assay type: functional, cell-based
# MDA-MB-231 [2] = experiment: Antimigratory activity against human MDA-MB-231 cells after 6 hrs by Boyden chamber migration assay; assay type: functional, cell-based; conditions: MDA-MB-231, 6 h
# HeLa [3] = experiment: Cell cycle arrest in human HeLa cells assessed as disorganized microtubules at 470 nM after 24 hrs by Hoechst 33342 staining; assay type: functional, cell-based
# NIH3T3 = experiment: Cytotoxicity against mouse NIH/3T3 cells after 24 hrs by MTT assay; assay type: cell-based; conditions: NIH3T3, 24 h
# HeLa [4] = experiment: Antimitotic activity in human HeLa cells assessed as increase in phosphohistone H3 level after 24 hrs by Hoechst 33342 staining; assay type: functional
# HeLa [5] = experiment: Antimitotic activity in human HeLa cells assessed as tubulin staining intensity at 1 nM after 24 hrs by Hoechst 33342 staining; assay type: functional, cell-based
# PBMC = experiment: Cytotoxicity against human PBMC cells after 24 hrs by MTT assay; assay type: cell-based
# MDA-MB-231 [6] = experiment: Antimigratory activity against human MDA-MB-231 cells at 1 uM after 22 hrs by scratch wound healing assay; assay type: functional
# L1210 = experiment: Cytotoxicity against mouse L1210 cells after 24 hrs by MTT assay; assay type: functional, cell-based; conditions: L1210, 24 h
# Jurkat = experiment: Cytotoxicity against human Jurkat cells after 48 hrs by MTT assay; assay type: functional, cell-based
# HUVEC = experiment: Cytotoxicity against human HUVEC cells after 24 hrs by MTT assay; assay type: cell-based
# HeLa [7] = experiment: Antimitotic activity in human HeLa cells assessed as tubulin staining intensity at 5 nM after 24 hrs by Hoechst 33342 staining; assay type: functional, cell-based
# [8] = Inhibition of bovine brain tubulin assembly after 20 mins by spectrophotometric analysis; design: species or system Bos taurus
# MDA-MB-231 [9] = experiment: Antimigratory activity against human MDA-MB-231 cells at 0.5 to 5 uM after 22 hrs by scratch wound healing assay; assay type: functional, cell-based
# HeLa [10] = experiment: Antimitotic activity in human HeLa cells assessed as tubulin intensity after 24 hrs by Hoechst 33342 staining; assay type: functional; conditions: read-out: MEC
# HeLa [11] = experiment: Antimitotic activity in human HeLa cells assessed as chromatin condensation after 24 hrs by Hoechst 33342 staining; assay type: functional; conditions: read-out: MEC
# HeLa [12] = experiment: Cell cycle arrest in human HeLa cells assessed as disorganized microtubules at 62 nM after 24 hrs by Hoechst 33342 staining; assay type: functional, cell-based
# HeLa [13] = experiment: Cell cycle arrest in human HeLa cells assessed as disorganized microtubules at 940 nM after 24 hrs by Hoechst 33342 staining; assay type: functional, cell-based
smiles,measurement,setting,value
COc1cc(C(=O)/C=C/c2ccc(N(C)C)cc2)cc(OC)c1OC (mixture of isomers),EC50,HeLa [1],0.357 µM
same,IC50,REH,1.05 µM
same,IC50,MDA-MB-231 [2],0.656 µM
same,Activity,HeLa [3],Active
same,IC50,NIH3T3,66 µM
same,Activity,HeLa [4],200 nM
same,Activity,HeLa [5],inactive
same,IC50,PBMC,92.5 µM
same,Activity,MDA-MB-231 [6],54%
same,IC50,L1210,30 µM
same,IC50,Jurkat,1.2 µM
same,IC50,HUVEC,> 100 µM
same,Activity,HeLa [7],Active
same,IC50,[8],2.8 µM
same,Activity,MDA-MB-231 [9],Active
COc1cc(C(=O)/C=C/c2ccc(C)o2)cc(OC)c1OC,IC50,L1210,46.5 µM
COc1cc(C(=O)/C=C/c2ccc([N+](=O)[O-])cc2)cc(OC)c1OC,IC50,L1210,> 100 µM
COc1cc(OC)c(/C=C/C(=O)c2cc(OC)c(OC)c(OC)c2)c(OC)c1,IC50,L1210,62.5 µM
COc1cc(C(=O)/C=C/c2ccc(Br)cc2)cc(OC)c1OC,IC50,L1210,> 100 µM
COc1cc(/C=C/C(=O)c2cc(OC)c(OC)c(OC)c2)ccc1O,IC50,L1210,> 100 µM
COc1cc(C(=O)/C=C/c2c(Cl)cccc2Cl)cc(OC)c1OC,IC50,L1210,50.5 µM
O=C(/C=C/c1ccccc1)c1ccccc1 [CHALCONE],EC50,HeLa [1],> 50 µM
same,Activity,HeLa [4],> 50000 nM
same,IC50,PBMC,27 µM
same,minimal effective concentration,HeLa [10],> 50 µM
same,IC50,L1210,> 100 µM
same,minimal effective concentration,HeLa [11],> 50 µM
same,IC50,Jurkat,17.1 µM
same,IC50,[8],> 10 µM
COc1cc(C(=O)/C=C/c2ccc(Cl)c(Cl)c2)cc(OC)c1OC,IC50,L1210,44 µM
COc1cc2c(c(OC)c1OC)-c1ccc(OC)c(=O)cc1[C@@H](NC(C)=O)CC2 [COLCHICINE],Activity,HeLa [12],Active
same,Activity,HeLa [5],inactive
same,Activity,MDA-MB-231 [6],74%
same,Activity,HeLa [7],Active
same,Activity,MDA-MB-231 [9],Active
COc1cc(C(=O)/C=C/c2ccc(F)cc2)cc(OC)c1OC,IC50,L1210,46.5 µM
COc1cc(C(=O)/C=C/c2ccc(C)cc2)cc(OC)c1OC,IC50,L1210,50.5 µM
COc1cc(C(=O)/C=C/c2ccc(Cl)c(C(F)(F)F)c2)cc(OC)c1OC,IC50,L1210,47.5 µM
COc1cc(C(=O)/C=C/c2ccc(Cl)cc2)cc(OC)c1OC,IC50,L1210,44.5 µM
COc1ccc(/C=C/C(=O)c2ccc3c(c2)OCO3)c(OC)c1OC,EC50,HeLa [1],> 50 µM
same,IC50,REH,23.6 µM
same,Activity,HeLa [4],> 50000 nM
same,IC50,PBMC,81.2 µM
same,minimal effective concentration,HeLa [10],> 50 µM
same,IC50,L1210,47.5 µM
same,minimal effective concentration,HeLa [11],> 50 µM
same,IC50,Jurkat,30 µM
same,IC50,[8],> 10 µM
COc1cc(OC)c(OC)cc1/C=C/C(=O)c1cc(OC)c(OC)c(OC)c1,IC50,L1210,42.5 µM
COc1cc(C(=O)/C=C/c2ccc3ccccc3c2)cc(OC)c1OC,EC50,HeLa [1],0.684 µM
same,IC50,REH,0.73 µM
same,IC50,MDA-MB-231 [2],1.09 µM
same,IC50,NIH3T3,34 µM
same,Activity,HeLa [13],Active
same,Activity,HeLa [4],397 nM
same,Activity,HeLa [5],inactive
same,IC50,PBMC,18 µM
same,Activity,MDA-MB-231 [6],46%
same,IC50,L1210,26 µM
same,IC50,Jurkat,0.5 µM
same,IC50,HUVEC,37 µM
same,Activity,HeLa [7],Active
same,IC50,[8],2.2 µM
same,Activity,MDA-MB-231 [9],Active
COc1cc(/C=C/C(=O)c2cc(OC)c(OC)c(OC)c2)cc(OC)c1OC,IC50,L1210,> 100 µM
COc1cc(C(=O)/C=C/c2cccc([N+](=O)[O-])c2)cc(OC)c1OC,IC50,L1210,> 56 µM
COc1ccc(/C=C/C(=O)c2cc(OC)c(OC)c(OC)c2)cc1,IC50,L1210,48 µM
COc1cc(C(=O)/C=C/c2ccc(Cl)cc2Cl)cc(OC)c1OC,IC50,L1210,52.5 µM
CCCCOc1ccc(/C=C/C(=O)c2cc(OC)c(OC)c(OC)c2)cc1,IC50,L1210,> 100 µM
COc1cc(C(=O)/C=C/c2ccc3ccccc3c2)ccc1O,EC50,HeLa [1],3.3 µM
same,IC50,REH,2.58 µM
same,Activity,HeLa [4],1400 nM
same,IC50,PBMC,35.6 µM
same,minimal effective concentration,HeLa [10],1.1 µM
same,IC50,L1210,54 µM
same,minimal effective concentration,HeLa [11],2.2 µM
same,IC50,Jurkat,5.9 µM
same,IC50,[8],3.6 µM
COc1cc(C(=O)/C=C/c2cc(Cl)cc(Cl)c2)cc(OC)c1OC,IC50,L1210,44 µM
